{"source": "patent US9364555B2", "about": "“Pederin and psymberin agents” (priority 2011, dated 2016)", "key": {"[1]": {"tested_on": "HCT116 colon cancer cells", "assay": "cell viability study, MTS assay with a three day incubation period", "type": "cell-based", "description": "The potency of the above-described compounds was measured in cell viability studies using HCT116 colon cancer cells with an MTS assay with a three day incubation period.\nThe second generation analogs were evaluated for their ability to inhibit HCT116 cell growth through the same protocol that was used to evaluate the initial set of compounds."}, "[2]": {"tested_on": "p53 knockout variant of the HCT116 cell line", "assay": "test against p53 knockout variant of the HCT116 cell line", "type": "cell-based", "from_the_text": "The identity of the alkoxy group in the acyl aminal subunit appears to exert little influence over the biological activity, but the presence of the alkoxy group enhances potency by at least one order of magnitude (entries 1-4 vs. entry 5). […] This has also been observed in psymberin analogs that lack a substituent at that position (Huang et al., Org. Lett. 2009, 11, 867). […] The approximately one order of magnitude potency reduction of the des-methylene analog (entry 7), though consistent with results from the Nakata group, was somewhat surprising based on the minimal structural perturbation that this change effects on the hydrogen bond donors and acceptors in the molecule (Fukui et al., Bioorg. Med. Chem. Lett. 1997, 7, 2081)."}, "[3]": {"tested_on": "HCT116 colon cancer cells", "details": "literature value, read-out: GI50 value in the literature for this cell line; cited from earlier work"}, "[4]": {"details": "HCT116 cells, MTS assay, three day incubation, Table 1, natural products and analogs"}, "[5]": {"details": "HCT116 cell growth, same protocol as Table 1, Table 2, second generation analogs"}, "[6]": {"details": "Homo sapiens, HCT-116, HCT116 cell growth, same protocol as Table 1, Table 2, second generation analogs"}}, "note": "Where two headings read alike, the source gives them in different places."}
{"compound": "C=C1C[C@](OC)([C@H](O)C(=O)N[C@@H](OC)[C@@H]2C[C@@H](OC)C(C)(C)[C@@H](C[C@@H](COC)OC)O2)O[C@H](C)[C@@H]1C", "note": "[Compound 41, 13-O-methyl pederin]", "values": [{"measurement": "GI50", "setting": "[1]; [4]", "value": "0.084 ± 0.01", "unit": "nM"}, {"measurement": "activity against p53 knockout variant of HCT116 compared with HCT116", "setting": "[2]", "value": "essentially identical activity"}]}
{"compound": "4-desmethylene-10-desmethoxy 13-O-methylpederin [Compound 49]", "values": [{"measurement": "GI50", "setting": "[1]; [5]", "value": "79 ± 8", "unit": "nM"}]}
{"compound": "C=C1C[C@](OC)([C@H](O)C(=O)N/C=C2/C[C@@H](O)C(C)(C)[C@@H](C[C@@H](COC)OC)O2)O[C@H](C)[C@@H]1C", "note": "[Compound 37, pederin enamide]", "values": [{"measurement": "GI50", "setting": "[1]; Homo sapiens, HCT-116, 72 h, HCT116 cells, MTS assay, three day incubation, Table 1, natural products and analogs", "value": "27 ± 0.88", "unit": "nM"}, {"measurement": "activity against p53 knockout variant of HCT116 compared with HCT116", "setting": "[2]", "value": "essentially identical activity"}]}
{"compound": "10-desmethoxy pederin [Compound 36e]", "values": [{"measurement": "GI50", "setting": "[1]; [4]", "value": "7.7 ± 0.24", "unit": "nM"}]}
{"compound": "C=C1C[C@](OC)([C@H](O)C(=O)N[C@@H](OC)[C@@H]2C[C@@H](O)C(C)(C)[C@@H](C[C@@H](COC)OC)O2)O[C@H](C)[C@@H]1C", "note": "[Compound 1, pederin]", "values": [{"measurement": "GI50", "setting": "[1]; [4]", "value": "0.6 ± 0.1", "unit": "nM"}, {"measurement": "activity against p53 knockout variant of HCT116 compared with HCT116", "setting": "[2]", "value": "essentially identical activity"}]}
{"compound": "10-desmethoxy pedestatin [Compound 48]", "values": [{"measurement": "GI50", "setting": "[1]; [5]", "value": "0.068 ± 0.02", "unit": "nM"}]}
{"compound": "C=C(C)CC(OC)[C@H](O)C(=O)N[C@@H](OC)[C@@H]1C[C@@H](O)C(C)(C)[C@@H](C[C@H](O)[C@@H](C)[C@H]2Cc3c(C)c(O)cc(O)c3C(=O)O2)O1", "note": "(stereo partly drawn) [Compound 2, psymberin]", "values": [{"measurement": "GI50", "setting": "[1]; [4]", "value": "0.052 ± 0.02", "unit": "nM"}, {"measurement": "GI50", "setting": "[3]", "value": 0.16, "unit": "nM"}]}
{"compound": "13-OTBS pederin", "values": [{"measurement": "GI50", "setting": "[1]; [4]", "value": "3.1 ± 0.1", "unit": "nM"}]}
{"compound": "C=C1CC(OC)(C(O)C(=O)NC(OCC)C2CC(O)C(C)(C)C(CC(COC)OC)O2)OC(C)C1C", "note": "(stereo not drawn) [Compound 36b, 10-ethoxy pederin]", "values": [{"measurement": "GI50", "setting": "[1]; [4]", "value": "0.34 ± 0.08", "unit": "nM"}]}
{"compound": "pedestatin [Compound 46]", "values": [{"measurement": "GI50", "setting": "[1]; [4]", "value": "0.046 ± 0.03", "unit": "nM"}]}
{"compound": "COC[C@H](C[C@H]1O[C@H]([C@H](C)NC(=O)[C@@H](O)[C@@]2(OC)CC[C@@H](C)[C@@H](C)O2)C[C@@H](OC)C1(C)C)OC", "note": "[Compound 51, 4-desmethylene-10-(S)-methyl 13-O-methylpederin]", "values": [{"measurement": "GI50", "setting": "[1]; [6]", "value": "42 ± 5", "unit": "nM"}]}
{"compound": "COC[C@H](C[C@H]1O[C@H]([C@@H](C)NC(=O)[C@@H](O)[C@@]2(OC)CC[C@@H](C)[C@@H](C)O2)C[C@@H](OC)C1(C)C)OC", "note": "[Compound 52, 4-desmethylene-10-(R)-methyl 13-O-methylpederin]", "values": [{"measurement": "GI50", "setting": "[1]; [6]", "value": "> 9000", "unit": "nM"}]}
{"compound": "10-trifluoroethoxy pederin [Compound 36c]", "values": [{"measurement": "GI50", "setting": "[1]; [4]", "value": "0.55 ± 0.024", "unit": "nM"}]}
{"compound": "10-dimthoxybenzyloxy pederin [Compound 36d]", "values": [{"measurement": "GI50", "setting": "[1]; [4]", "value": "0.32 ± 0.09", "unit": "nM"}]}
{"compound": "C4-desmethylene pederin [Compound 40]", "values": [{"measurement": "GI50", "setting": "[1]; [4]", "value": "6.5 ± 0.8", "unit": "nM"}, {"measurement": "activity against p53 knockout variant of HCT116 compared with HCT116", "setting": "[2]", "value": "essentially identical activity"}]}
{"compound": "8-desmethoxy psymberin [Compound 47]", "values": [{"measurement": "GI50", "setting": "[1]; [5]", "value": "0.83 ± 0.1", "unit": "nM"}]}
